Key:
Assay in all cases: relative viability (nuclei count vs DMSO), 5 days (fraction); higher = more cells survive
KIN001-266 + Pictilisib = compound: CCN1CCC(CC1)N2C=C(N=N2)CNC3=CC4=C(C(=CN=C4C(=C3)Cl)C#N)NC5=CC(=C(C=C5)F)Cl [KIN001-266] + CS(=O)(=O)N1CCN(Cc2cc3nc(-c4cccc5[nH]ncc45)nc(N4CCOCC4)c3s2)CC1 [Pictilisib] (partner 1 µM)
Summary of the method: (§1)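 Lung cancer cell lines were pin-tool dosed in 1536-well plates on the day after seeding, with either a lone drug or a fixed anchor-drug dose plus five library-drug doses (not always all listed) in √10 steps. Nuclei were counted on 4× images after 5 days. Relative viability is the ratio of treated-well to vehicle-well nuclei counts, with each value a median of duplicate plates.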

KIN001-266 + Linsitinib = compound: CCN1CCC(CC1)N2C=C(N=N2)CNC3=CC4=C(C(=CN=C4C(=C3)Cl)C#N)NC5=CC(=C(C=C5)F)Cl [KIN001-266] + C[C@]1(O)C[C@@H](c2nc(-c3ccc4ccc(-c5ccccc5)nc4c3)c3c(N)nccn32)C1 [Linsitinib] (partner 1 µM)
Summary of the method: as §1

KIN001-266 + Alpelisib = compound: CCN1CCC(CC1)N2C=C(N=N2)CNC3=CC4=C(C(=CN=C4C(=C3)Cl)C#N)NC5=CC(=C(C=C5)F)Cl [KIN001-266] + Cc1nc(NC(=O)N2CCC[C@H]2C(N)=O)sc1-c1ccnc(C(C)(C)C(F)(F)F)c1 [Alpelisib] (partner 2 µM)
Summary of the method: as §1

KIN001-266 + Decitabine = compound: CCN1CCC(CC1)N2C=C(N=N2)CNC3=CC4=C(C(=CN=C4C(=C3)Cl)C#N)NC5=CC(=C(C=C5)F)Cl [KIN001-266] + Nc1ncn([C@H]2C[C@H](O)[C@@H](CO)O2)c(=O)n1 [Decitabine] (partner 2 µM)
Summary of the method: as §1

Cell Line	relative viability (KIN001-266 + Pictilisib; first compound 0.08 µM)	relative viability (KIN001-266 + Pictilisib; first compound 0.253 µM)	relative viability (KIN001-266 + Pictilisib; first compound 0.8 µM)	relative viability (KIN001-266 + Pictilisib; first compound 2.53 µM)	relative viability (KIN001-266 + Pictilisib; first compound 8 µM)	relative viability (KIN001-266 + Linsitinib; first compound 0.08 µM)	relative viability (KIN001-266 + Linsitinib; first compound 0.253 µM)	relative viability (KIN001-266 + Linsitinib; first compound 0.8 µM)	relative viability (KIN001-266 + Linsitinib; first compound 2.53 µM)	relative viability (KIN001-266 + Linsitinib; first compound 8 µM)	relative viability (KIN001-266 + Alpelisib; first compound 0.08 µM)	relative viability (KIN001-266 + Alpelisib; first compound 0.253 µM)	relative viability (KIN001-266 + Alpelisib; first compound 0.8 µM)	relative viability (KIN001-266 + Alpelisib; first compound 2.53 µM)	relative viability (KIN001-266 + Alpelisib; first compound 8 µM)	relative viability (KIN001-266 + Decitabine; first compound 0.08 µM)	relative viability (KIN001-266 + Decitabine; first compound 0.253 µM)	relative viability (KIN001-266 + Decitabine; first compound 0.8 µM)	relative viability (KIN001-266 + Decitabine; first compound 2.53 µM)	relative viability (KIN001-266 + Decitabine; first compound 8 µM)
HCC-15	0.769	0.765	0.594	0.674	0.472	0.812	0.886	0.761	0.734	0.7	0.867	0.849	0.766	0.781	0.586	0.679	0.691	0.539	0.497	0.488
PC-3 [JPC-3]	0.797	0.8	0.575	0.693	0.527	0.99	0.934	0.941	0.958	0.896	1.04	1.02	0.957	0.983	0.896	0.786	0.87	0.823	0.824	0.737
NCI-H1944	0.363	0.363	0.333	0.356	0.352	1.3	1.23	1.14	1.29	1.22	0.865	0.813	0.797	0.801	0.852	0.421	0.459	0.401	0.415	0.393
HARA	0.515	0.466	0.507	0.444	0.291	0.863	0.851	0.925	0.935	0.735	0.771	0.77	0.835	0.847	0.59	0.416	0.616	0.635	0.57	0.439
NCI-H2126	0.53	0.538	0.449	0.434	0.5	0.72	0.724	0.739	0.73	0.73	0.77	0.76	0.774	0.703	0.76	0.625	0.56	0.647	0.572	0.552
LXF-289	0.791	0.786	0.755	0.767	0.799	0.931	0.945	0.878	0.968	0.935	1.05	1.03	1.01	1.05	1.03	0.379	0.365	0.369	0.34	0.414
NCI-H460	0.5	0.339	0.308	0.355	0.302	0.673	0.853	0.899	0.762	0.539	0.609	0.581	0.484	0.485	0.413	0.483	0.477	0.475	0.433	0.438
NCI-H1395	0.693	0.843	0.614	0.522	0.575	1.06	1.02	1.19	1.11	0.949	1.07	1.06	1.23	0.955	1.05	0.731	0.687	0.75	0.687	0.758
NCI-H2009	0.852	0.935	1.02	0.669	0.48	1.23	1.12	1.2	1.16	1.05	1.21	1.17	1.19	1.03	0.983	0.394	0.367	0.437	0.357	0.391

Reference: the supplement of paper PMC10307832
